For data set [1], the species on record is Homo sapiens. Briefly: Selectivity ratio of IC50 for inhibition of His6-tagged human CREBBP (R1081 to G1197 residues) expressed in Escherichia coli BL21(DE3) by AlphaScreen assay to IC50 for inhibition of His6-tagged human BRD4 bromodomain-1 (N44 to E168 residues) expressed in Escherichia coli BL21(DE3) by AlphaScreen assay. For orientation: Alpha assays give light when donor and acceptor beads are brought close together.

For data set [2], the species on record is Homo sapiens. Briefly: Inhibition of BET bromodomain in human 22Rv1 cells assessed as reduction in c-Myc mRNA level at 1 uM after 48 hrs by qPCR assay. In kind it is cell-based.
In data set [3] the test system is VCaP. Briefly: Inhibition of BET bromodomain in human VCaP cells assessed as reduction in c-Myc mRNA level at 1 uM after 48 hrs by qPCR assay. It counts as cell-based.
For data set [4], the system named is VCaP. Briefly: Inhibition of BET bromodomain in human VCaP cells assessed as reduction in TMPRSS2 mRNA level at 1 uM after 48 hrs by qPCR assay. It counts as cell-based.
For data set [5], the species on record is Homo sapiens. Briefly: Inhibition of BET bromodomain in human 22Rv1 cells assessed as reduction in TMPRSS2 mRNA level at 1 uM after 48 hrs by qPCR assay. In kind it is cell-based. On the technique in general: Real-time PCR tracks product formation cycle by cycle.
The species entered for data set [6] is Homo sapiens. Briefly: Inhibition of BET bromodomain in human LNCAP cells assessed as reduction in ERG mRNA level at 1 uM after 48 hrs by qPCR assay. In kind it is cell-based.
The species entered for data set [7] is Homo sapiens. Briefly: Inhibition of BET bromodomain in human 22Rv1 cells assessed as full length AR protein level at 1 uM after 48 hrs by Western blot assay (reference value: 1). In kind it is cell-based. Background: A western blot detects proteins with antibodies after separation by electrophoresis.
The species entered for data set [8] is Homo sapiens. Briefly: Inhibition of BET bromodomain in human 22Rv1 cells assessed as full length AR protein level at 4 uM after 48 hrs by Western blot assay (reference value: 1). It counts as cell-based.
The species entered for data set [9] is Homo sapiens. Briefly: Inhibition of BET bromodomain in human 22Rv1 cells assessed as full length AR protein level at 16 uM after 48 hrs by Western blot assay (reference value: 1). In kind it is cell-based.
The species entered for data set [10] is Homo sapiens. Briefly: Inhibition of BET bromodomain in human 22Rv1 cells assessed as AR-varient protein level at 1 uM after 48 hrs by Western blot assay (reference value: 1). In kind it is cell-based.
The species entered for data set [11] is Homo sapiens. Briefly: Inhibition of BET bromodomain in human 22Rv1 cells assessed as AR-varient protein level at 16 uM after 48 hrs by Western blot assay (reference value: 1). It counts as cell-based.
Data set [12] has as its system CWR22R. Briefly: Antimigratory activity against human 22Rv1 cells assessed as inhibition of wound closure at 1 uM after 48 hrs by bright field microscopic method. It counts as functional, cell-based.
Data set [13] is described as follows: Cmax in Sprague-Dawley rat at 2 mg/kg, iv administered as single dose. It counts as ADME, organism-based. Also on record: dose 2 mg/kg, route intravenous. To be noted: in vivo.
Data set [14] can be described thus: Cmax in Sprague-Dawley rat at 10 mg/kg, po administered as single dose. It counts as ADME, organism-based. More on the design: dose 10 mg/kg, route oral. The settings on record: in vivo.
Data set [15] is described as follows: Tmax in Sprague-Dawley rat at 2 mg/kg, iv administered as single dose. In kind it is ADME, organism-based. The settings on record: in vivo.
Data set [16] can be described thus: Tmax in Sprague-Dawley rat at 10 mg/kg, po administered as single dose. In kind it is ADME, organism-based. To be noted: in vivo.
The nature of data set [17]: AUC (0 to infinity) in Sprague-Dawley rat at 2 mg/kg, iv administered as single dose. It counts as ADME, organism-based. Also on record: dose 2 mg/kg, route intravenous, time infinity. The settings on record: in vivo.
Data set [18] in a line: Half life in Sprague-Dawley rat at 10 mg/kg, po administered as single dose. It counts as ADME, organism-based. The settings on record: in vivo.
Data set [19] can be described thus: Volume of distribution at steady state in Sprague-Dawley rat at 2 mg/kg, iv administered as single dose. It counts as ADME, organism-based. To be noted: in vivo, read-out: Vdss.
A short description of data set [20]: Oral bioavailability in Sprague-Dawley rat at 10 mg/kg administered as single dose. In kind it is ADME, organism-based. To be noted: in vivo.
Data set [21] deals with CWR22R. Briefly: Antitumor activity against human 22Rv1 cells xenografted in C.B-17/IcrHsd-Prkdc scid mouse assessed as tumor growth inhibition at 50 mg/kg, ip administered 5 times per week relative to control. To be noted: 22Rv1, ip, read-out: TGI. In kind it is functional.

The source of these data is ChEMBL document CHEMBL4152259, “Benzoxazinone-containing 3,5-dimethylisoxazole derivatives as BET bromodomain inhibitors for treatment of castration-resistant prostate cancer” (Eur J Med Chem, 2018).

What is called Cmax is the maximum level reached in the sampled fluid or tissue. Broadly, the Tmax is the time at which the peak concentration occurs. As a reminder, the AUC(0-inf) is the area under the concentration-time curve extrapolated to infinity. Higher therefore signals more exposure. What is called half-life is the time needed for the level to fall by half in the phase considered. For orientation: bioavailability means dose-corrected exposure relative to a reference, in per cent. Read a high bioavailability as much systemic uptake.

The source made the active and inactive calls.

Consider `Cc1noc(C)c1-c1ccc2c(c1)O[C@H](CC1CC1)C(=O)N2`, for which the Ratio IC50 in the data set filed under Homo sapiens [1] stood at 25. Moreover, the inhibition entry in the data set listed under Homo sapiens [2], in the data set with VCaP [3], in the data set with VCaP [4], in the data set listed under Homo sapiens [5], in the data set filed under Homo sapiens [6] and with CWR22R [12] was “Active” throughout. Further, the fold change (FC) in the data set filed under Homo sapiens [7] turned out to be 0.43; in the data set filed under Homo sapiens [8], 0.4; in the data set listed under Homo sapiens [9], 0.09; in the data set listed under Homo sapiens [10], 0.83; in the data set filed under Homo sapiens [11], 0.06. Besides, the maximum concentration (Cmax) in [13] was found to be 1350 ng/mL; in data set [14], 830 ng/mL. Besides, the figures for the Tmax in data set [15] and in data set [16] were 4.8 min and 30 min, respectively. This molecule also returned an area under the curve AUC(0-inf) in [17] of 997 ng·h/mL. For the same molecule, in [18], the half-life is 42 min. Also, the Vd in [19] turned out to be 1.6 L/kg. Besides, in [20], the bioavailability was found to be 29.3%. In the data set on CWR22R [21], the inhibition in vivo at 50 mg/kg was 70%.
